We go through 9 compounds from ChEMBL document CHEMBL4190189, “Exploring Jolkinol D Derivatives To Overcome Multidrug Resistance in Cancer” (J Nat Prod, 2017).

Active and inactive are the calls of the source. The rule behind the calls is not given here.

Data set [1] deals with L5178Y. In words: Cytotoxicity against mouse L5178Y cells assessed as reduction in cell viability after 72 hrs by MTT assay. The data set is classed as cell-based. For orientation: Tetrazolium dyes change colour on reduction, which living cells bring about.
The test system of data set [2] is L5178Y. In words: Cytotoxicity against mouse L5178Y cells transfected with human ABCB1 assessed as reduction in cell viability after 72 hrs by MTT assay. The data set is classed as functional, cell-based.
Data set [3] has as its target T1, ATP-dependent translocase ABCB1 (Homo sapiens, UniProt P08183). Put plainly: Modulation of human ABCB1 expressed in mouse L5178Y cells assessed as fluorescence activity ratio at 2 uM pretreated for 10 mins followed by rhodamine-123 addition measured after 20 mins by flow cytometry (reference value: 0.87). Type of data set: cell-based. On the technique in general: In flow cytometry, cells or beads pass a laser one at a time.

The target in data set [4] is T1, ATP-dependent translocase ABCB1. Put plainly: Modulation of human ABCB1 expressed in mouse L5178Y cells assessed as fluorescence activity ratio at 20 uM pretreated for 10 mins followed by rhodamine-123 addition measured after 20 mins by flow cytometry (reference value: 0.87). Type of data set: cell-based.
For data set [5] the target is unchanged. In words: Inhibition of human ABCB1 expressed in mouse L5178Y cells assessed as potentiation of doxorubicin-induced cytotoxicity by measuring combination index at 10:1 compound to doxorubicin ratio after 48 hrs by MTT assay. Type of data set: cell-based.
For data set [6] the target is unchanged. Put plainly: Inhibition of human ABCB1 ATPase activity expressed in Sf9 insect cell membranes assessed as reduction in verapamil-stimulated vanadate-sensitive ATPase activity at 50 to 100 uM measured after 10 mins by colorimetric method.
Data set [7] concerns the target ABCB1 (P-glycoprotein) ATPase (Homo sapiens, UniProt P08183). In words: Inhibition of human ABCB1 ATPase activity expressed in Sf9 insect cell membranes assessed as reduction in verapamil-stimulated vanadate-sensitive ATPase activity at 1.56 to 25 uM measured after 10 mins by colorimetric method relative to control. The settings on record: Sf9 insect cell membranes expressing human ABCB1, probe verapamil (ATPase stimulator).

Data set [8] in a line: Resistance ratio of IC50 for human EPG85-257P cells to IC50 for human EPG85-257RDB cells. The data set is classed as functional.
Data set [9] addresses T1, ATP-dependent translocase ABCB1. Put plainly: Inhibition of human ABCB1 expressed in mouse L5178Y cells assessed as potentiation of doxorubicin-induced cytotoxicity by measuring combination index at 100:1 compound to doxorubicin ratio after 48 hrs by MTT assay. Type of data set: cell-based.
A short description of data set [10]: Resistance ratio of IC50 for human EPG85-257P cells to IC50 for human EPG85-257RNOV cells. The data set is classed as functional.
Data set [11] deals with T1, ATP-dependent translocase ABCB1. In words: Inhibition of human ABCB1 expressed in mouse L5178Y cells assessed as potentiation of doxorubicin-induced cytotoxicity by measuring combination index at 5:1 compound to doxorubicin ratio after 48 hrs by MTT assay. Type of data set: cell-based.
Data set [12] in a line: Cytotoxicity against human EPG85-257RNOV cells assessed as reduction in cell viability after 5 days by SRB assay. The settings on record: 120 h. The data set is classed as functional, cell-based. Background: Sulforhodamine B stains cellular protein and so reports cell mass.
The nature of data set [13]: Induction of apoptosis in human EPG85-257P cells at 30 uM after 72 hrs by annexin-V/propidium iodide staining based flow cytometric method relative to control. The data set is classed as cell-based.
Data set [14] can be described thus: (§1) Induction of apoptosis in human EPG85-257RDB cells at 30 uM after 72 hrs by annexin-V/propidium iodide staining based flow cytometric method relative to control. The data set is classed as functional.
Data set [15] can be described thus: Induction of apoptosis in human EPG85-257P cells assessed as caspase-3 activation at 30 uM after 72 hrs by flow cytometric method relative to control. The data set is classed as cell-based.
A short description of data set [16]: (§2) Induction of apoptosis in human EPG85-257RDB cells assessed as caspase-3 activation at 30 uM after 72 hrs by flow cytometric method relative to control. Type of data set: functional.
Data set [17] in a line: (§3) Induction of apoptosis in human EPG85-257RNOV cells assessed as caspase-3 activation at 30 uM after 72 hrs by flow cytometric method relative to control. Type of data set: functional.
A short description of data set [18]: Induction of apoptosis in human EPP85-181RNOV cells at 30 uM after 72 hrs by annexin-V/propidium iodide staining based flow cytometric method relative to control. Type of data set: functional.
Data set [19] in a line: Induction of apoptosis in human EPP85-181RDB cells at 30 uM after 72 hrs by annexin-V/propidium iodide staining based flow cytometric method relative to control. Type of data set: functional.
Data set [20] in a line: Induction of apoptosis in human EPP85-181RNOV cells assessed as caspase-3 activation at 30 uM after 72 hrs by flow cytometric method relative to control. The data set is classed as functional.
Data set [21] in a line: (§4) Induction of apoptosis in human EPG85-257RNOV cells at 30 uM after 72 hrs by annexin-V/propidium iodide staining based flow cytometric method relative to control. Type of data set: functional.
Data set [22] has as its target T1, ATP-dependent translocase ABCB1. Put plainly: Inhibition of human ABCB1 expressed in mouse L5178Y cells assessed as potentiation of doxorubicin-induced cytotoxicity by measuring combination index at 25:1 compound to doxorubicin ratio after 48 hrs by MTT assay. Type of data set: cell-based.
Data set [23] shares this target. Put plainly: Inhibition of human ABCB1 expressed in mouse L5178Y cells assessed as potentiation of doxorubicin-induced cytotoxicity by measuring combination index at 18:1 compound to doxorubicin ratio after 48 hrs by MTT assay. Type of data set: cell-based.
Data set [24] in a line: Cytotoxicity against human EPG85-257P cells assessed as reduction in cell viability after 5 days by SRB assay. The data set is classed as cell-based. The note with it: 120 h.
A short description of data set [25]: Cytotoxicity against human EPG85-257RDB cells assessed as reduction in cell viability after 5 days by SRB assay. The data set is classed as functional, cell-based. The settings on record: 120 h.
The species named for data set [26] is Homo sapiens. Described as §1. Type of data set: functional.
The species entered for data set [27] is Homo sapiens. Described as §2. Type of data set: functional.
Data set [28] is filed under the species Homo sapiens. Described as §3. The data set is classed as functional.
The species entered for data set [29] is Homo sapiens. The description is as §4. Type of data set: functional.
The target in data set [30] is T1, ATP-dependent translocase ABCB1. In words: Inhibition of human ABCB1 expressed in mouse L5178Y cells assessed as potentiation of doxorubicin-induced cytotoxicity by measuring combination index at 200:1 compound to doxorubicin ratio after 48 hrs by MTT assay. The data set is classed as cell-based.
Data set [31] can be described thus: Resistance ratio of IC50 for human EPP85-181P cells to IC50 for human EPP85-181RDB cells. The data set is classed as functional.
Data set [32] addresses T1, ATP-dependent translocase ABCB1. In words: Inhibition of human ABCB1 expressed in mouse L5178Y cells assessed as potentiation of doxorubicin-induced cytotoxicity by measuring combination index at 15:1 compound to doxorubicin ratio after 48 hrs by MTT assay. Type of data set: cell-based.
Data set [33] can be described thus: Cytotoxicity against human EPP85-181P cells assessed as reduction in cell viability after 5 days by SRB assay. The data set is classed as cell-based. The settings on record: 120 h.
Data set [34] can be described thus: Cytotoxicity against human EPP85-181RNOV cells assessed as reduction in cell viability after 5 days by SRB assay. The data set is classed as functional, cell-based. The note with it: 120 h.
Data set [35] in a line: Cytotoxicity against human EPP85-181RDB cells assessed as reduction in cell viability after 5 days by SRB assay. Type of data set: functional, cell-based. The settings on record: 120 h.
Data set [36] concerns the target T1, ATP-dependent translocase ABCB1. Put plainly: Inhibition of human ABCB1 expressed in mouse L5178Y cells assessed as potentiation of doxorubicin-induced cytotoxicity by measuring combination index at 400:1 compound to doxorubicin ratio after 48 hrs by MTT assay. The data set is classed as cell-based.

T1 sequence (P08183 whole entry): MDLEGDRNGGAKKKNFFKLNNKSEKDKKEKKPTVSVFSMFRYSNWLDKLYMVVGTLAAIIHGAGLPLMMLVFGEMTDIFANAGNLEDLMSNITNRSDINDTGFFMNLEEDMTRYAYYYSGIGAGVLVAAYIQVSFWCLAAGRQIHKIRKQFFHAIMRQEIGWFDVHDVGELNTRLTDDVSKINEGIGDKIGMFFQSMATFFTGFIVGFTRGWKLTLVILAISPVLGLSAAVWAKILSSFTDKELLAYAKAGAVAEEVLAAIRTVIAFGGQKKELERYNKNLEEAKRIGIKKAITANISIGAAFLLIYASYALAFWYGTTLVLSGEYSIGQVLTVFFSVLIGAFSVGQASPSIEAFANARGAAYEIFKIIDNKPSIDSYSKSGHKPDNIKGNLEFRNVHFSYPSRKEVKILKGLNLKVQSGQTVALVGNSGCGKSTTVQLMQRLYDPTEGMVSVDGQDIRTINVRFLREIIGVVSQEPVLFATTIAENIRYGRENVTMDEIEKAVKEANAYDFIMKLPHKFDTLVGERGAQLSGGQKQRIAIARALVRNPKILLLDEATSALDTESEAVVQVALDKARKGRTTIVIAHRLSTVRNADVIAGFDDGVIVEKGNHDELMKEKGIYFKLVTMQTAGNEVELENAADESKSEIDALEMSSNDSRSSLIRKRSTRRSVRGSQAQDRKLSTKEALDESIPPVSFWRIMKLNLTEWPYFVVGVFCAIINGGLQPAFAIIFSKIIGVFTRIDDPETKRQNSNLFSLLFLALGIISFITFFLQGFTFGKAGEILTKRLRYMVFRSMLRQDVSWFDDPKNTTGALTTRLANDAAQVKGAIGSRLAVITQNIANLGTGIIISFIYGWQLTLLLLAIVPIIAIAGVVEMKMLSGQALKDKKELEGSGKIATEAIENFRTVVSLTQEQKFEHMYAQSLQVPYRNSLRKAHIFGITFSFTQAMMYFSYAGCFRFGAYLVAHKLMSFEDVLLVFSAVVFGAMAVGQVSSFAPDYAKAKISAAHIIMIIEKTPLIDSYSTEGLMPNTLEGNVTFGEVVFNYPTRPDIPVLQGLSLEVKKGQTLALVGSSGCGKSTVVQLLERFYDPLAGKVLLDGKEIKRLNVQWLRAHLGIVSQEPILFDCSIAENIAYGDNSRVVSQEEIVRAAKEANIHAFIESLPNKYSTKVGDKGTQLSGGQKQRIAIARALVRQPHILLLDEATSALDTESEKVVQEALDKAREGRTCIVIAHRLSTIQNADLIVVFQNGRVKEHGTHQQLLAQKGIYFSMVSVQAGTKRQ
ABCB1 (P-glycoprotein) ATPase, sequence (P08183 whole entry): as above

The term IC50 denotes the point on the concentration scale where inhibition reaches its midpoint. By inhibition is commonly meant the drop in the measured response relative to a control, in per cent. On to `COc1ccccc1C(=O)O[C@H]1[C@@H](C)C[C@]2(OC(C)=O)C(=O)/C(C)=C/[C@@H]3[C@H](CC/C(C)=C\[C@@H]12)C3(C)C`, for which the IC50 in data set [1] and in data set [2] was greater than 19 µM in each case. Also, the Ratio was determined as 33.3 in data set [3] and 39.6 in data set [4]. Besides, in [5], the CI stood at 0.09. Besides, the “inhibition (INH)” value in data set [6] is given as “Active”. Moreover, in data set [7], the inhibition at 10 min is 100%. Besides, the “Ratio IC50” value in data set [8] turned out to be 0.2.
As for `CC(=O)O[C@]12C[C@H](C)[C@H](OC(=O)c3ccc(-c4ccccc4)cc3)[C@@H]1/C=C(/C)CC[C@H]1[C@@H](/C=C(\C)C2=O)C1(C)C`, the IC50 in data set [1] and in data set [2] was greater than 19 µM each time. The figures for the Ratio in data set [3] and in [4] were 11.6 and 37.2, respectively. In addition, the CI in [9] is given as 0.32. Moreover, the “Ratio IC50” value in [10] was found to be 0.2.
With `CCOC(=O)O[C@H]1[C@@H](C)C[C@]2(OC(C)=O)C(=O)/C(C)=C/[C@@H]3[C@H](CC/C(C)=C\[C@@H]12)C3(C)C`, the results for the IC50 in [1], in data set [2] and in data set [12] were greater than 19 µM, greater than 19 µM and less than 10 µM, respectively. Moreover, the Ratio is recorded as 3.1 in data set [3] and 18.7 in data set [4]. The CI in data set [11] stood at 1.22. For the same compound, the “Ratio IC50” value in data set [8] is 0.4.
For `CC(=O)O[C@]12C[C@H](C)[C@H](OC(=O)c3cccc(C(F)(F)F)c3)[C@@H]1/C=C(/C)CC[C@H]1[C@@H](/C=C(\C)C2=O)C1(C)C`, the “fold change (FC)” value is 4 in data set [13]; 6 in data set [14]; 6 - 9 in data set [16]; 6 - 9 in data set [17]; 4.5 in data set [18]; 3.5 in data set [19]. Further, the “fold change (FC)” value in data set [20] was 12; in data set [21] it was 4. For the same compound, the fold induction at 72 h, 30 µM in data set [15] (EPG85-257P cells, read-out: FC) fell in the range of 6 to 9.
For `COc1cccc(C(=O)O[C@H]2[C@@H](C)C[C@]3(OC(C)=O)C(=O)/C(C)=C/[C@@H]4[C@H](CC/C(C)=C\[C@@H]23)C4(C)C)c1`, the IC50 in data set [1] and in data set [2] was greater than 19 µM in each case. In addition, the results for the Ratio in [3] and in data set [4] were 26.1 and 36.4, respectively. The CI in [22] amounted to 0.84. Besides, the “Ratio IC50” value in data set [8] is listed as 0.3.
Consider `CC(=O)O[C@]12C[C@H](C)[C@H](OC(=O)Oc3ccccc3)[C@@H]1/C=C(/C)CC[C@H]1[C@@H](/C=C(\C)C2=O)C1(C)C`, for which the concentration for half-maximal inhibition (IC50) was greater than 19 µM in data set [1]; greater than 19 µM in data set [2]; 5.55 µM in data set [12]; 6.24 µM in data set [24]; 2.34 µM in data set [25]. The Ratio in data set [3] came out at 10.8; in data set [4] it was 19.5. Also, in data set [23], the CI is 0.5. Moreover, the Activity result in [13] was “Toxic”; in [15] (72 h, 30 µM) it was “Toxic”. Besides, the outcome in data set [26], in [27], in [28] and in data set [29] was Active. Moreover, the “Ratio IC50” value in data set [8] is listed as 0.4.
On to `C/C1=C/[C@H]2[C@@H](OC(=O)c3ccc4ccccc4c3)[C@@H](C)C[C@]2(O)C(=O)/C(C)=C/[C@@H]2[C@H](CC1)C2(C)C`, for which the IC50 in data set [1] is greater than 19 µM; in data set [2], greater than 19 µM; in data set [12] it was less than 10 µM. The Ratio worked out at 8.3 in data set [3] and 16.7 in data set [4]. Moreover, the CI in data set [30] is reported as 0.2. Further, the figures for the “Ratio IC50” value in [10], in data set [8] and in data set [31] were 0.4, 0.3 and 0.3, respectively.
In the case of `CC(=O)O[C@]12C[C@H](C)[C@H](OC(=O)C34CC5CC(CC(C5)C3)C4)[C@@H]1/C=C(/C)CC[C@H]1[C@@H](/C=C(\C)C2=O)C1(C)C`, the IC50 was greater than 19 µM in data set [1]; greater than 19 µM in data set [2]; less than 10 µM in [12]; 8.61 µM in data set [33]; 6.63 µM in [34]; 5.86 µM in data set [35]. The Ratio in data set [3] was found to be 12.6; in data set [4], 29. Besides, the CI in [32] was 1.11. Besides, the “fold change (FC)” value in data set [18] is 5; in [19], 17.
Regarding `CC(=O)O[C@]12C[C@H](C)[C@H](OC(=O)c3ccc4ccccc4c3)[C@@H]1/C=C(/C)CC[C@H]1[C@@H](/C=C(\C)C2=O)C1(C)C`, the IC50 in data set [1] and in data set [2] was greater than 19 µM in each case. Moreover, the Ratio in data set [3] is recorded as 11.9; in [4], 31.9. In addition, the CI in [36] worked out at 0.06.
